Measured values taken from ChEMBL document CHEMBL1122983, “Synthesis and dopaminergic activity of (R)- and (S)-4-hydroxy-2-(di-n-propylamino)indan” (J Med Chem, 1985).

Target: Dopamine receptor (Homo sapiens) (UniProt P14416+P35462+P21918+P21917+P21728)
Settings: Felis catus
Description: Inhibition of stimulation-induced tachycardia via the presynaptic dopamine receptors

`CCCN(CCC)[C@H]1Cc2cccc(O)c2C1` was tested, and the ID50 was 720 nM.
In the case of `CCCN(CCC)[C@@H]1Cc2cccc(O)c2C1`, the ID50 is reported as 7 nM.
